Test results reported in patent publication US20240109836A1, “NON-HALL[…] ANALOGS FOR TREATMENT OF NEUROLOGICAL AND PSYCHIATRIC DISORDERS” (The Trustees of Columbia University in the City of New York, priority 2021, published 2024).

Key:
[1] = at therapeutically effective doses in animals and humans; cited from earlier work
[2] = Head twitch response assay; type: in vivo, Mice (C57bl/6J); conditions: mice, 1, 3, 10, and 30 mg/kg s.c., vs positive control DOI
Protocol: FIG. 2. […] N=5 mice in each cohort. […] Drugs were administered s.c.
Mice (C57bl/6J, 8-15 weeks, 26-33 g) were weighed and moved to the testing room 30 minutes prior to experimentation. Mice were administered the experimental compound at a selected dose s.c. and then immediately moved to a new cage. Before beginning the test, mice were allowed to remain in this cage for a set amount of time ranging 0-10 min based on the compound. The head twitch assay was performed by a trained observer watching the mouse for a 10 min duration and recording the total number of head twitches observed.
DOI was tested at the doses of 1, 3, 10 and 30 mg/kg (s.c., 5 mice per dose) and testing began immediately after administration of the compound. Ariadne (32), (29) and (38) were tested at the doses of 1, 3, 10, and 30 mg/kg (s.c., 5 mice per dose) and there was a 10 min interval between treatment and testing.

[3] = target: T1, Serotonin (5-Hydroxytryptamine) 5-HT2B (Homo sapiens, UniProt P41595); assay: SafetyScreen44 (Panlabs) panel, replacement of standard ligand; type: binding; conditions: hum
T1 construct: Panlabs (SafetyScreen44 panel)

[4] = target: T2, PDE4D2 (Homo sapiens, UniProt Q08499); assay: SafetyScreen44 (Panlabs) panel; type: biochemical; conditions: 10 μM
T2 construct: Panlabs (SafetyScreen44 panel)
Protocol: (§1) Other targets included with less than ≥50% stimulation at a concentration of 10 μM: Acetylcholinesterase, COX-1, COX-2, MAO-A, PDE3A, PDE4D2, Protein Tyrosine Kinase (LCK), Adenosine A2A, Adrenergic α1A, Adrenergic α2A, Adrenergic β1, Adrenergic β2, Androgen (Testosterone), Calcium Channel L-Type (Dihydropyridine), CB1, CB2, Cholecystokinin CCK1 (CCKA), Dopamine D1, Dopamine D2S, Endothelin ETA, GABAA (Flunitrazepam, Central), Glucocorticoid, Glutamate-NMDA (Agonism), Histamine H1, Histamine H2, Muscarinic M1, Muscarinic M2, Muscarinic M3, Nicotinic Acetylcholine α4β2, (Cytisine), DOP, KOP, MOP, Potassium Channel [KA], Potassium Channel hERG, Serotonin (5-Hydroxytryptamine) 5-HT1A, 5-HT1B, 5-HT3, Na-channel site 2, DAT, NET, SERT, Vasopressin V1A

[5] = target: T3, Protein Tyrosine Kinase (LCK) (Homo sapiens, UniProt P06239); assay: SafetyScreen44 (Panlabs) panel; type: biochemical; conditions: 10 μM
T3 construct: Panlabs (SafetyScreen44 panel)
Protocol: as §1

[6] = target: T4, PDE3A (Homo sapiens, UniProt Q14432); assay: SafetyScreen44 (Panlabs) panel; type: biochemical; conditions: 10 μM
T4 construct: Panlabs (SafetyScreen44 panel)
Protocol: as §1

[7] = target: T5, MAO-A (Homo sapiens, UniProt P21397); assay: SafetyScreen44 (Panlabs) panel; type: biochemical; conditions: 10 μM
T5 construct: Panlabs (SafetyScreen44 panel)
Protocol: as §1

[8] = target: T6, Acetylcholinesterase (Homo sapiens, UniProt P22303); assay: SafetyScreen44 (Panlabs) panel; type: biochemical; conditions: 10 μM
T6 construct: Panlabs (SafetyScreen44 panel)
Protocol: as §1

[9] = target: T7, COX-1 (Homo sapiens, UniProt P23219); assay: SafetyScreen44 (Panlabs) panel; type: biochemical; conditions: 10 μM
T7 construct: Panlabs (SafetyScreen44 panel)
Protocol: as §1

[10] = target: T8, COX-2 (Homo sapiens, UniProt P35354); assay: SafetyScreen44 (Panlabs) panel; type: biochemical; conditions: 10 μM
T8 construct: Panlabs (SafetyScreen44 panel)
Protocol: as §1

[11] = target: 5-HT2A (Homo sapiens, UniProt P28223); assay: IP1 agonist functional assay; type: cell-based; conditions: 5HT2A versus 5HT2B, relative agonism potencies
[12] = Forced swim test; type: in vivo, Mice (C57bl/6J); conditions: mice, 10 mg/kg s.c., 15 minutes post injection
Protocol: FIG. 1. […] N=5 mice (saline), N=10 (imipramine as a positive control), N=9 mice (Ariadne cohort). Y-axis show the immobility time per each testing session. Drugs were administered subcutaneously (s.c.).
Mice (C57bl/6J, 8-15 weeks, 29-35 g) were weighed and moved to the testing room 30 minutes prior to experimentation. Mice were administered 0.85% saline (s.c., 5 mice), imipramine 15 mg/kg (i.p., 10 mice), or Ariadne (32) 10 mg/kg (s.c., 9 mice). 15 minutes post injection the mice were moved to a forced swim cylinder with water kept at 23.8-25.0 degrees celsius. Mice were allowed to swim for 6 minutes after which they were removed, dried, and returned to their home cage. The last four minutes of the forced swim video footage was analyzed with Noldus FST scoring software. The mouse's view of the FST cylinder was obstructed prior to starting the forced swim test.

[13] = target: T9, Serotonin (5-Hydroxytryptamine) 5-HT2A (Homo sapiens, UniProt P28223); assay: SafetyScreen44 (Panlabs) panel, replacement of standard ligand; type: binding; conditions: hum
T9 construct: Panlabs (SafetyScreen44 panel)

[14] = target: T10, Adrenergic β1 (Homo sapiens, UniProt P08588); assay: SafetyScreen44 (Panlabs) panel; type: binding; conditions: 10 μM
T10 construct: Panlabs (SafetyScreen44 panel)
Protocol: as §1

[15] = target: T11, NET (Homo sapiens, UniProt P23975); assay: SafetyScreen44 (Panlabs) panel; type: binding; conditions: 10 μM
T11 construct: Panlabs (SafetyScreen44 panel)
Protocol: as §1

[16] = target: T12, Serotonin (5-Hydroxytryptamine) 5-HT1A (Homo sapiens, UniProt P08908); assay: SafetyScreen44 (Panlabs) panel; type: binding; conditions: 10 μM
T12 construct: Panlabs (SafetyScreen44 panel)
Protocol: as §1

[17] = system: Na-channel site 2; assay: SafetyScreen44 (Panlabs) panel; type: binding; conditions: 10 μM
Protocol: as §1

[18] = target: T13, Histamine H2 (Homo sapiens, UniProt P25021); assay: SafetyScreen44 (Panlabs) panel; type: binding; conditions: 10 μM
T13 construct: Panlabs (SafetyScreen44 panel)
Protocol: as §1

[19] = system: Androgen (Testosterone); assay: SafetyScreen44 (Panlabs) panel; type: binding; conditions: 10 μM
Protocol: as §1

[20] = target: T14, CB1 (Homo sapiens, UniProt P21554); assay: SafetyScreen44 (Panlabs) panel; type: binding; conditions: 10 μM
T14 construct: Panlabs (SafetyScreen44 panel)
Protocol: as §1

[21] = target: T15, SERT (Homo sapiens, UniProt P31645); assay: SafetyScreen44 (Panlabs) panel; type: binding; conditions: 10 μM
T15 construct: Panlabs (SafetyScreen44 panel)
Protocol: as §1

[22] = target: T16, Glucocorticoid (Homo sapiens, UniProt P04150); assay: SafetyScreen44 (Panlabs) panel; type: binding; conditions: 10 μM
T16 construct: Panlabs (SafetyScreen44 panel)
Protocol: as §1

[23] = target: T17, 5-HT3 (Homo sapiens, UniProt P46098); assay: SafetyScreen44 (Panlabs) panel; type: binding; conditions: 10 μM
T17 construct: Panlabs (SafetyScreen44 panel)
Protocol: as §1

[24] = target: T18, Dopamine D1 (Homo sapiens, UniProt P21728); assay: SafetyScreen44 (Panlabs) panel; type: binding; conditions: 10 μM
T18 construct: Panlabs (SafetyScreen44 panel)
Protocol: as §1

[25] = target: T19, CB2 (Homo sapiens, UniProt P34972); assay: SafetyScreen44 (Panlabs) panel; type: binding; conditions: 10 μM
T19 construct: Panlabs (SafetyScreen44 panel)
Protocol: as §1

[26] = target: T20, Nicotinic Acetylcholine α4β2, (Cytisine) (Homo sapiens, UniProt P17787+P43681); assay: SafetyScreen44 (Panlabs) panel; type: binding; conditions: 10 μM
T20 construct: Panlabs (SafetyScreen44 panel)
Protocol: as §1

[27] = system: Glutamate-NMDA (Agonism); assay: SafetyScreen44 (Panlabs) panel; type: binding; conditions: 10 μM
Protocol: as §1

[28] = target: T21, KOP (Homo sapiens, UniProt P41145); assay: SafetyScreen44 (Panlabs) panel; type: binding; conditions: 10 μM
T21 construct: Panlabs (SafetyScreen44 panel)
Protocol: as §1

[29] = system: Potassium Channel [KA]; assay: SafetyScreen44 (Panlabs) panel; type: binding; conditions: 10 μM
Protocol: as §1

[30] = target: T22, DAT (Homo sapiens, UniProt Q01959); assay: SafetyScreen44 (Panlabs) panel; type: binding; conditions: 10 μM
T22 construct: Panlabs (SafetyScreen44 panel)
Protocol: as §1

[31] = target: T23, Histamine H1 (Homo sapiens, UniProt P35367); assay: SafetyScreen44 (Panlabs) panel; type: binding; conditions: 10 μM
T23 construct: Panlabs (SafetyScreen44 panel)
Protocol: as §1

[32] = target: T24, MOP (Homo sapiens, UniProt P35372); assay: SafetyScreen44 (Panlabs) panel; type: binding; conditions: 10 μM
T24 construct: Panlabs (SafetyScreen44 panel)
Protocol: as §1

[33] = target: T25, Muscarinic M2 (Homo sapiens, UniProt P08172); assay: SafetyScreen44 (Panlabs) panel; type: binding; conditions: 10 μM
T25 construct: Panlabs (SafetyScreen44 panel)
Protocol: as §1

[34] = target: T26, Potassium Channel hERG (Homo sapiens, UniProt Q12809); assay: SafetyScreen44 (Panlabs) panel; type: binding; conditions: 10 μM
T26 construct: Panlabs (SafetyScreen44 panel)
Protocol: as §1

[35] = target: T27, Muscarinic M1 (Homo sapiens, UniProt P11229); assay: SafetyScreen44 (Panlabs) panel; type: binding; conditions: 10 μM
T27 construct: Panlabs (SafetyScreen44 panel)
Protocol: as §1

[36] = target: T28, Muscarinic M3 (Homo sapiens, UniProt P20309); assay: SafetyScreen44 (Panlabs) panel; type: binding; conditions: 10 μM
T28 construct: Panlabs (SafetyScreen44 panel)
Protocol: as §1

[37] = system: 5-HT1B; assay: SafetyScreen44 (Panlabs) panel; type: binding; conditions: 10 μM
Protocol: as §1

[38] = target: T29, Adenosine A2A (Homo sapiens, UniProt P29274); assay: SafetyScreen44 (Panlabs) panel; type: binding; conditions: 10 μM
T29 construct: Panlabs (SafetyScreen44 panel)
Protocol: as §1

[39] = target: T30, Adrenergic α2A (Homo sapiens, UniProt P08913); assay: SafetyScreen44 (Panlabs) panel; type: binding; conditions: 10 μM
T30 construct: Panlabs (SafetyScreen44 panel)
Protocol: as §1

[40] = system: Calcium Channel L-Type (Dihydropyridine); assay: SafetyScreen44 (Panlabs) panel; type: binding; conditions: 10 μM
Protocol: as §1

[41] = target: T31, Dopamine D2S (Homo sapiens, UniProt P14416); assay: SafetyScreen44 (Panlabs) panel; type: binding; conditions: 10 μM
T31 construct: Panlabs (SafetyScreen44 panel)
Protocol: as §1

[42] = target: T32, Adrenergic α1A (Rattus norvegicus, UniProt P43140); assay: SafetyScreen44 (Panlabs) panel; type: binding; conditions: 10 μM
T32 construct: Panlabs (SafetyScreen44 panel)
Protocol: as §1

[43] = target: T33, Cholecystokinin CCK1 (CCKA) (Homo sapiens, UniProt P32238); assay: SafetyScreen44 (Panlabs) panel; type: binding; conditions: 10 μM
T33 construct: Panlabs (SafetyScreen44 panel)
Protocol: as §1

[44] = target: T34, Endothelin ETA (Homo sapiens, UniProt P25101); assay: SafetyScreen44 (Panlabs) panel; type: binding; conditions: 10 μM
T34 construct: Panlabs (SafetyScreen44 panel)
Protocol: as §1

[45] = target: T35, DOP (Homo sapiens, UniProt P41143); assay: SafetyScreen44 (Panlabs) panel; type: binding; conditions: 10 μM
T35 construct: Panlabs (SafetyScreen44 panel)
Protocol: as §1

[46] = target: T36, Vasopressin V1A (Homo sapiens, UniProt P37288); assay: SafetyScreen44 (Panlabs) panel; type: binding; conditions: 10 μM
T36 construct: Panlabs (SafetyScreen44 panel)
Protocol: as §1

[47] = target: T37, Adrenergic β2 (Homo sapiens, UniProt P07550); assay: SafetyScreen44 (Panlabs) panel; type: binding; conditions: 10 μM
T37 construct: Panlabs (SafetyScreen44 panel)
Protocol: as §1

[48] = system: GABAA (Flunitrazepam, Central); assay: SafetyScreen44 (Panlabs) panel; type: binding; conditions: 10 μM
Protocol: as §1

[49] = target: 5-HT2B (Homo sapiens, UniProt P41595); assay: IP1 agonist functional assay; type: cell-based

T19 sequence (P34972 whole entry): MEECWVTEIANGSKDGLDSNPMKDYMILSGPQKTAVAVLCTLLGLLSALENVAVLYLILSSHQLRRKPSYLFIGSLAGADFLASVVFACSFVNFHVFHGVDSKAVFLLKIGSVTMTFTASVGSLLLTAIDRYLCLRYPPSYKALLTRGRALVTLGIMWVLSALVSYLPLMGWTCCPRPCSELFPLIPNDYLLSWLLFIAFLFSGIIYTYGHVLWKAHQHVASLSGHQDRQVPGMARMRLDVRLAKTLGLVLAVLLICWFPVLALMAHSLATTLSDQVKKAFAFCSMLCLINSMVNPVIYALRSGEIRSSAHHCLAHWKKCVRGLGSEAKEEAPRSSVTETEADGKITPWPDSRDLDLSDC
T30 sequence (P08913 whole entry): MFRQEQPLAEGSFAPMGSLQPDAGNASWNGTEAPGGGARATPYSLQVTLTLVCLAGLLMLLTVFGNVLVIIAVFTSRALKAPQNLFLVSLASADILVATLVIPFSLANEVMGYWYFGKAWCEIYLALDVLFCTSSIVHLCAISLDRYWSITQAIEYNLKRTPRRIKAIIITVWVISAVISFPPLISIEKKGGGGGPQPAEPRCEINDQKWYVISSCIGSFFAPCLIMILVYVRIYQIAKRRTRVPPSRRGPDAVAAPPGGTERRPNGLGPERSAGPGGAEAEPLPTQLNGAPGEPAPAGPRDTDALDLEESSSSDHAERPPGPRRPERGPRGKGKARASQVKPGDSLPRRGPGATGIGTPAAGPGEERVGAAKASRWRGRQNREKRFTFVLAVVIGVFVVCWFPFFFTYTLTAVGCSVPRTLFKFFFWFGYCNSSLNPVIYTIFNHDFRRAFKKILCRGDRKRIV
T12 sequence (P08908 whole entry): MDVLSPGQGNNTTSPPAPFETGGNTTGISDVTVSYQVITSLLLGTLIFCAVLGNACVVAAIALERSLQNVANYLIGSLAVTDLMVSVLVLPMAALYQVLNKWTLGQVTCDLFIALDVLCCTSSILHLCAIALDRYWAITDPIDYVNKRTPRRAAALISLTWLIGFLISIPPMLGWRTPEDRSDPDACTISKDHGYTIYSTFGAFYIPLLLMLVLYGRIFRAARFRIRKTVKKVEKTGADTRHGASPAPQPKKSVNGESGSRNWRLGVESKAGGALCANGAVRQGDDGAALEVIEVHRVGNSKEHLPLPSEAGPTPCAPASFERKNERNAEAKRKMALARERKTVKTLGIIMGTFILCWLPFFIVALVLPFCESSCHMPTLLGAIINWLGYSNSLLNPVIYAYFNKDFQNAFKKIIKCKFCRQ
T28 sequence (P20309 whole entry): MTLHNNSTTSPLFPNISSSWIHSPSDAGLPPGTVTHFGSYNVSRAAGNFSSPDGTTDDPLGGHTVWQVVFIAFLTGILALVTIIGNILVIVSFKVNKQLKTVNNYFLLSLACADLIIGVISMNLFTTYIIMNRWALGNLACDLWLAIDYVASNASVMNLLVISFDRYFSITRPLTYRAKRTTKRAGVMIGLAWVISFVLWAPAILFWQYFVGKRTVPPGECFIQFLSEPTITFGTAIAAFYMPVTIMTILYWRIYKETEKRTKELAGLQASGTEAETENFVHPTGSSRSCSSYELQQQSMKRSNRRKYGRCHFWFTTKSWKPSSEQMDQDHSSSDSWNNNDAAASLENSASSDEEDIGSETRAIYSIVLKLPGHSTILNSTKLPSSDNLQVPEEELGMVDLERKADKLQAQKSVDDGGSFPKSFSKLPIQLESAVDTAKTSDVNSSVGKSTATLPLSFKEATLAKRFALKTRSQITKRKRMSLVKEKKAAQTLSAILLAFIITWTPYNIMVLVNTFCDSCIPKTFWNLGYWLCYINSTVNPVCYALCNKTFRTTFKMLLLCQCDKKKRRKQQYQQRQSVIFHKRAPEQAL
T10 sequence (P08588 whole entry): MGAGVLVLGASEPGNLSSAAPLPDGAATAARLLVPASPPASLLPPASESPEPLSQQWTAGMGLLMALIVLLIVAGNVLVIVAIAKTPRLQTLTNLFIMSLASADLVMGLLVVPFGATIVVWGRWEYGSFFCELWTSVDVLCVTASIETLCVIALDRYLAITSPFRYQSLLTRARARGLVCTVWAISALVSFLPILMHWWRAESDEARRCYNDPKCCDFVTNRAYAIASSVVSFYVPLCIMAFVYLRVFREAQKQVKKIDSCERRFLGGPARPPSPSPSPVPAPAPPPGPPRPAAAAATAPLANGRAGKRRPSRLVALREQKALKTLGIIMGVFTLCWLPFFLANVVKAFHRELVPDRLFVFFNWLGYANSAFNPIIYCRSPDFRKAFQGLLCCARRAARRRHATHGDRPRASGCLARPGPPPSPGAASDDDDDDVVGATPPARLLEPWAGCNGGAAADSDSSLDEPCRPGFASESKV
T7 sequence (P23219 24-599): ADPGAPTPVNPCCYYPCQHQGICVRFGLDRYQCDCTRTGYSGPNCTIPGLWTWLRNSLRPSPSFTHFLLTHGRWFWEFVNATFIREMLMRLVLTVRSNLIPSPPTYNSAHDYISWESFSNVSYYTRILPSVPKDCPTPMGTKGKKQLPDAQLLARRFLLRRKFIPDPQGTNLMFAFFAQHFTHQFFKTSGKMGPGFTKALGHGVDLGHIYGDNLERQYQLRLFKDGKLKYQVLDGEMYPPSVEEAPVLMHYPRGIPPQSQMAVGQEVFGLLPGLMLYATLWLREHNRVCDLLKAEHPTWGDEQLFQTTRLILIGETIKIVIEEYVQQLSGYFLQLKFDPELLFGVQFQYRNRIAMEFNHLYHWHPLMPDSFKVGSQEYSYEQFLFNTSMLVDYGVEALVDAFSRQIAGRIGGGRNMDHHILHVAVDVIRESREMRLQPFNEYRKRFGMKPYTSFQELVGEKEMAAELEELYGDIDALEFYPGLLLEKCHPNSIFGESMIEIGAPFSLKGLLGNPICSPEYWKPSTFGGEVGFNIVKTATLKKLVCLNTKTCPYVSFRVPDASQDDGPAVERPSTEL
T16 sequence (P04150 whole entry): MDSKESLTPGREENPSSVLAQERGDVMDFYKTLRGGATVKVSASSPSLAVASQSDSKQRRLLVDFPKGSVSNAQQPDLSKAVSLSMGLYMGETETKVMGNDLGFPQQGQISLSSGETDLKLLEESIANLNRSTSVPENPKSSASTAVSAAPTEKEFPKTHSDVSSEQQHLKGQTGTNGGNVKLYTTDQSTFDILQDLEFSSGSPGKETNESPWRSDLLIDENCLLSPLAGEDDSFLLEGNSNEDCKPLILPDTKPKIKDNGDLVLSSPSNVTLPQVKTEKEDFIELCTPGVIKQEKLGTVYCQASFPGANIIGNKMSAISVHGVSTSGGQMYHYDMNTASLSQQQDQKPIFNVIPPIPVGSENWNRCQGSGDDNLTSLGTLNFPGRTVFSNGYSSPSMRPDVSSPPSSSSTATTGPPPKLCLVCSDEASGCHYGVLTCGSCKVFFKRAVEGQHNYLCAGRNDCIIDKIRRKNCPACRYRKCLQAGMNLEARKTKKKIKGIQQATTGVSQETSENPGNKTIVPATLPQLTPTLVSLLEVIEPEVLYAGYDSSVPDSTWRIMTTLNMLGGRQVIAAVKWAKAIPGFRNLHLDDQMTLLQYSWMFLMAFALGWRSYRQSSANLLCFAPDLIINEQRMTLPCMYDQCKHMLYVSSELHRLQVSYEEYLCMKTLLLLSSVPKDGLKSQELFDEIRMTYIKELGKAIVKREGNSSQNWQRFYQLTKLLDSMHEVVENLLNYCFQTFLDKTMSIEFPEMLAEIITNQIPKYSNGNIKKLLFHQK
T15 sequence (P31645 whole entry, species assumed): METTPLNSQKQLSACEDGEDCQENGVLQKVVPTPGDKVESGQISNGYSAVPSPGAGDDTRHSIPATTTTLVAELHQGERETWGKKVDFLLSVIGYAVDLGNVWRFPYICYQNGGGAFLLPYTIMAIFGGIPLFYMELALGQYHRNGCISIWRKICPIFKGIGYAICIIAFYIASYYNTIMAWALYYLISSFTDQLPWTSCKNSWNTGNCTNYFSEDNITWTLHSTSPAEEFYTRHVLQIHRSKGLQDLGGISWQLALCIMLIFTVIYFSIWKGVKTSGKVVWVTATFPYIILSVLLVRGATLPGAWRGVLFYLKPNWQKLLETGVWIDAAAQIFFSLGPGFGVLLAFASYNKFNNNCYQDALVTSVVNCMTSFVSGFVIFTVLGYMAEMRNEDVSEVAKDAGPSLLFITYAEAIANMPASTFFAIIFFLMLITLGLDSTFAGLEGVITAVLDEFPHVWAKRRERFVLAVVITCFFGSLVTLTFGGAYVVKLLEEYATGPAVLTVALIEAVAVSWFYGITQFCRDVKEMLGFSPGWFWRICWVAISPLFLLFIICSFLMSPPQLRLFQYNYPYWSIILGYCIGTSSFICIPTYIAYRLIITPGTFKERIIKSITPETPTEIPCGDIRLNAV
T36 sequence (P37288 whole entry): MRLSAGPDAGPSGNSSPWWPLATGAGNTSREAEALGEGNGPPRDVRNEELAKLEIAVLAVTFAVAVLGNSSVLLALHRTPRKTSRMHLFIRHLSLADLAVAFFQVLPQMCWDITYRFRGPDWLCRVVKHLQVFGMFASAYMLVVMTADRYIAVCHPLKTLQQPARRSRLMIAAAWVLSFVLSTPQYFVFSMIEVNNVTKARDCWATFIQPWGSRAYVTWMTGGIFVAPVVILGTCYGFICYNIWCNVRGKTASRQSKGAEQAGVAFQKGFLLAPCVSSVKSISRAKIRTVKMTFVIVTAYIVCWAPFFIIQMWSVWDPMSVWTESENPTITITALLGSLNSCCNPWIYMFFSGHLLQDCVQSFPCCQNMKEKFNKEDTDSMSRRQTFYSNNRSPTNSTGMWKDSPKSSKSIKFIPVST

CCC(N)Cc1cc(OC)c(C)cc1OC (stereo not shown) [Ariadne (32), 1-(2,5-dimethoxy-4-methylphenyl)butan-2-amine]
antidepressant-like effects: antidepressant-like effects (immobility time) [12]
lower psychedelic activity: psychedelic activity (number of head twitches in a 10-min period) [2]
no hallucinogenic effect: hallucinogenic effect [1]
25x: Selectivity (EC50 2B ÷ EC50 2A) [11]
< 50%: % stimulation [4] | % stimulation [5] | % stimulation [6] | % stimulation [7] | % stimulation [8] | % stimulation [9] | % stimulation [10] | % stimulation [14] | % stimulation [15] | % stimulation [16] | % stimulation [17] | % stimulation [18] | % stimulation [19] | % stimulation [20] | % stimulation [21] | % stimulation [22] | % stimulation [23] | % stimulation [24] | % stimulation [25] | % stimulation [26] | % stimulation [27] | % stimulation [28] | % stimulation [29] | % stimulation [30] | % stimulation [31] | % stimulation [32] | % stimulation [33] | % stimulation [34] | % stimulation [35] | % stimulation [36] | % stimulation [37] | % stimulation [38] | % stimulation [39] | % stimulation [40] | % stimulation [41] | % stimulation [42] | % stimulation [43] | % stimulation [44] | % stimulation [45] | % stimulation [46] | % stimulation [47] | % stimulation [48]
72%: inhibition at 10 µM [3] | inhibition at 10 µM [13]
> 32 µM: EC50 [49]
